Where two headings read alike, the source gives them in different places.
Tests used:
Assay in all cases: Kinase profiling in a biochemical assay panel (mobility shift assays and ELISA), %-inhibition at 1 μM; selectivity entropy
[1] = target: panel of more than 300 wild-type and mutant kinases (313 kinase panel) (Homo sapiens, UniProt Q9UM73, L1196M)
[2] = target: panel of more than 300 wild-type and mutant kinases (313 kinase panel) (Homo sapiens, UniProt Q9HCP0)
[3] = test system: panel of more than 300 wild-type and mutant kinases (313 kinase panel)
[4] = target: T1, panel of more than 300 wild-type and mutant kinases (313 kinase panel) (Homo sapiens, UniProt Q16832); conditions: kinase DDR2; compound at 1 μM
T1 sequence (Q16832 22-855): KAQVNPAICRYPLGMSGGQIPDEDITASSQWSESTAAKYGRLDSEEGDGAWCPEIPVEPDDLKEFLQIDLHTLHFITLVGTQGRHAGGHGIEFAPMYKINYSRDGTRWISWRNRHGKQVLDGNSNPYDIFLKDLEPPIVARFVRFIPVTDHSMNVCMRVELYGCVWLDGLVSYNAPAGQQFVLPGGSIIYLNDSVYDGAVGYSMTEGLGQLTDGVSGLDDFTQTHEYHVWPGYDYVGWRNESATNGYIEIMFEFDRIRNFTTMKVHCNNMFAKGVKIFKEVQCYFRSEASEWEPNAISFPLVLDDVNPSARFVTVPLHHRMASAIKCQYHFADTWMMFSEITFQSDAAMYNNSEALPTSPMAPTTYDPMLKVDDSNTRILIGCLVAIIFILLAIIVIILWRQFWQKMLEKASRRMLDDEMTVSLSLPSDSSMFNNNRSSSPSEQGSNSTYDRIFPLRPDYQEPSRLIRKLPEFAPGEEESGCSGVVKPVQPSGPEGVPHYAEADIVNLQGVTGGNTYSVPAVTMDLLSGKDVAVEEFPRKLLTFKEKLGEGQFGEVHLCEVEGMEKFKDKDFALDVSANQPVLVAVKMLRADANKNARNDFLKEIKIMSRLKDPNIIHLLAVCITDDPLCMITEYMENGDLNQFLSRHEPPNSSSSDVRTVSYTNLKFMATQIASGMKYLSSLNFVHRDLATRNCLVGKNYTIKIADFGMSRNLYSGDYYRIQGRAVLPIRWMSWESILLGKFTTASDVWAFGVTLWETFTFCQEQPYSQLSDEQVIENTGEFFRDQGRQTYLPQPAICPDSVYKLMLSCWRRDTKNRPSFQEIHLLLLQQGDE

[5] = target: panel of more than 300 wild-type and mutant kinases (313 kinase panel) (Homo sapiens, UniProt Q9H4B4); conditions: kinase PLK3; 1 μM
[6] = target: panel of more than 300 wild-type and mutant kinases (313 kinase panel) (Homo sapiens, UniProt P51957); conditions: kinase NEK4; 1 μM
[7] = target: panel of more than 300 wild-type and mutant kinases (313 kinase panel) (Homo sapiens, UniProt Q06187)
[8] = target: panel of more than 300 wild-type and mutant kinases (313 kinase panel) (Homo sapiens, UniProt Q02750); conditions: kinase MAP2K1; compound at 1 μM
[9] = target: panel of more than 300 wild-type and mutant kinases (313 kinase panel) (Homo sapiens, UniProt Q9BYP7); conditions: kinase WNK3; compound at 1 μM
[10] = target: panel of more than 300 wild-type and mutant kinases (313 kinase panel) (Homo sapiens, UniProt Q9BUB5)
[11] = target: panel of more than 300 wild-type and mutant kinases (313 kinase panel) (Homo sapiens, UniProt P53779); conditions: kinase JNK3; compound at 1 μM
[12] = target: panel of more than 300 wild-type and mutant kinases (313 kinase panel) (Homo sapiens, UniProt Q9Y5S2); conditions: kinase MRCKβ; 1 μM
[13] = kinase ALK(L1196M), 1 μM compound
[14] = kinase EGFR(d746-750), compound at 1 μM
[15] = kinase EGFR(d746-750/T790M), compound at 1 μM
[16] = kinase EML4-ALK, compound at 1 μM

Structure (SMILES)	%-inhibition, ALK(L1196M) [1, 13] [%]	%-inhibition, CK1γ1 ([2]; kinase CK1γ1, 1 μM compound) [%]	%-inhibition of EGFR(d746-750) [3, 14] [%]	%-inhibition of EGFR(d746-750/T790M) [3, 15] [%]	%-inhibition of EML4-ALK [3, 16] [%]	%-inhibition of LYNb ([3]; kinase LYNb, compound at 1 μM) [%]	%-inhibition of NPM1-ALK ([3]; kinase NPM1-ALK, 1 μM) [%]	%-inhibition of PKCβ2 ([3]; kinase PKCβ2, 1 μM) [%]	%-inhibition of SRM ([3]; kinase SRM, 1 μM) [%]	%-inhibition of TAK1-TAB1 ([3]; kinase TAK1-TAB1, 1 μM) [%]	%-inhibition of DDR2 [4] [%]	%-inhibition of PLK3 [5] [%]	%-inhibition of NEK4 [6] [%]	%-inhibition, BTK ([7]; kinase BTK, 1 μM compound) [%]	%-inhibition of MAP2K1 [8] [%]	%-inhibition of WNK3 [9] [%]	%-inhibition of MNK1 ([10]; kinase MNK1, 1 μM) [%]	%-inhibition of JNK3 [11] [%]	%-inhibition of MRCKβ [12] [%]	other results
CO[C@H]1C[C@@H]2CC[C@@H](C)[C@@](O)(O2)C(=O)C(=O)N2CCCC[C@H]2C(=O)O[C@H]([C@H](C)C[C@@H]2CC[C@@H](OC(=O)C(C)(CO)CO)[C@H](OC)C2)CC(=O)[C@H](C)/C=C(\C)[C@@H](O)[C@@H](OC)C(=O)[C@H](C)C[C@H](C)/C=C/C=C/C=C/1C [temsirolimus]	-2.81	-4.47	-3	-0.33	-7	-10	-7.57	-1.6	-4	-3.77	-4	-4.39	0.416	18	0.452	-13	-19	-1.22	-4	
CNC(=O)c1cc(Oc2ccc(NC(=O)Nc3ccc(Cl)c(C(F)(F)F)c3)c(F)c2)ccn1 [regorafenib]	0.358	-8	12	3.63	-7	85	-7	-9	66	60	102	2.24	-4	2.55	-8.57	-10	7	5	-17	
CO[C@H]1C[C@@H]2CC[C@@H](C)[C@@](O)(O2)C(=O)C(=O)N2CCCC[C@H]2C(=O)O[C@H]([C@H](C)C[C@@H]2CC[C@@H](OCCO)[C@H](OC)C2)CC(=O)[C@H](C)/C=C(\C)[C@@H](O)[C@@H](OC)C(=O)[C@H](C)C[C@H](C)/C=C/C=C/C=C/1C [everolimus]	-3.63	-2.44	-4	-5	-3.62	-1.66	-5.62	-9	0.151	1.54	0	-1.66	0.832	1.16	7.5	-12	-0.485	-4.31	0.688	
COc1cc2nccc(Oc3ccc(NC(=O)C4(C(=O)Nc5ccc(F)cc5)CC4)cc3)c2cc1OC [cabozantinib]	4.25	4.74	51	43	17	97	10	-0.178	99	4.37	99	-1.07	16	93	82	20	11	-2	-3	
N#CC[C@H](C1CCCC1)n1cc(-c2ncnc3[nH]ccc23)cn1 [ruxolitinib]		-4									49	13	-6		11	-8	8.57	-3	20	%-inhibition, ALK(L1196M) ([1]; 1 µM): 79%; %-inhibition of NPM1-ALK [3]: 65%; %-inhibition of TAK1-TAB1 [3]: 6%; %-inhibition of EGFR(d746-750) ([3]; 1 µM): -1.14%; %-inhibition of EGFR(d746-750/T790M) ([3]; 1 µM): 1.32%; %-inhibition of EML4-ALK ([3]; 1 µM): 64%; %-inhibition of LYNb ([3]; 1 µM): 8%; %-inhibition of PKCβ2 ([3]; 1 µM): 5%; %-inhibition of SRM ([3]; 1 µM): 4.69%; %-inhibition, BTK ([7]; 1 µM): -6%
CCCS(=O)(=O)Nc1ccc(F)c(C(=O)c2c[nH]c3ncc(-c4ccc(Cl)cc4)cc23)c1F [vemurafenib]	3	-2	2.81	4.62	-1.53	62	-1.72	-3	102	9	69	-2.83	-0.416	2	18	53	23	2.85	-5	
Cc1cn(-c2cc(NC(=O)c3ccc(C)c(Nc4nccc(-c5cccnc5)n4)c3)cc(C(F)(F)F)c2)cn1 [nilotinib]	-42										102	26	-22	45	-8	-7		39	-10	%-inhibition, CK1γ1 ([2]; 1 µM): -1%; %-inhibition of NPM1-ALK [3]: -64%; %-inhibition of TAK1-TAB1 [3]: 5%; %-inhibition of EML4-ALK ([3]; 1 µM): -12%; %-inhibition of LYNb ([3]; 1 µM): 85%; %-inhibition of PKCβ2 ([3]; 1 µM): 1.66%; %-inhibition of SRM ([3]; 1 µM): 27%; %-inhibition of MNK1 ([10]; 1 µM): -1.26%

— publication PMC3961306, “Comparison of the Cancer Gene Targeting and Biochemical Selectivities of All Targeted Kinase Inhibitors Approved for Clinical Use” (PLoS ONE, 2014)
